This is an account of results in ChEMBL document CHEMBL3621133, “Macrocyclic derivatives of 6-methyluracil as ligands of the peripheral anionic site of acetylcholinesterase” (Medchemcomm, 2014).

For data set [1], the system named is Rattus norvegicus. Kind of data set: […] in muscle action potential decrement in rat experimental autoimmune model of myasthenia gravis at 0.004 mg/kg, ip (reference value: 67.3 +/- 2.7%). It counts as functional.
The target in data set [2] is T1, Acetylcholinesterase (Homo sapiens, UniProt P22303). Kind of data set: Inhibition of AChE from human erythrocytes.
Data set [3] is described as follows: Toxicity in ip dosed rat. As to conditions: in vivo. It counts as organism-based.
Data set [4] has as its system Rattus norvegicus. Kind of data set: […] in muscle action potential decrement in rat experimental autoimmune model of myasthenia gravis at 0.008 mg/kg, ip (reference value: 67.3 +/- 2.7%). The data set is classed as functional.
The target of data set [5] is Cholinesterase (Homo sapiens, UniProt P06276). As to the kind of experiment: Inhibition of BChE from human plasma.
Data set [6] deals with T1, Acetylcholinesterase. Kind of data set: Reversible inhibition of AChE from human erythrocytes by Lineweaver-Burk plot.
Data set [7] relates to Rattus norvegicus. As to the kind of experiment: […] in muscle action potential decrement in rat experimental autoimmune model of myasthenia gravis at 0.1 mg/kg, ip (reference value: 67.3 +/- 2.7%). It counts as functional.
The subject of data set [8] is Rattus norvegicus. Kind of data set: […] in muscle action potential decrement in rat experimental autoimmune model of myasthenia gravis at 0.3 mg/kg, ip (reference value: 67.3 +/- 2.7%). It counts as functional.

Sequence of Cholinesterase (P06276 whole entry): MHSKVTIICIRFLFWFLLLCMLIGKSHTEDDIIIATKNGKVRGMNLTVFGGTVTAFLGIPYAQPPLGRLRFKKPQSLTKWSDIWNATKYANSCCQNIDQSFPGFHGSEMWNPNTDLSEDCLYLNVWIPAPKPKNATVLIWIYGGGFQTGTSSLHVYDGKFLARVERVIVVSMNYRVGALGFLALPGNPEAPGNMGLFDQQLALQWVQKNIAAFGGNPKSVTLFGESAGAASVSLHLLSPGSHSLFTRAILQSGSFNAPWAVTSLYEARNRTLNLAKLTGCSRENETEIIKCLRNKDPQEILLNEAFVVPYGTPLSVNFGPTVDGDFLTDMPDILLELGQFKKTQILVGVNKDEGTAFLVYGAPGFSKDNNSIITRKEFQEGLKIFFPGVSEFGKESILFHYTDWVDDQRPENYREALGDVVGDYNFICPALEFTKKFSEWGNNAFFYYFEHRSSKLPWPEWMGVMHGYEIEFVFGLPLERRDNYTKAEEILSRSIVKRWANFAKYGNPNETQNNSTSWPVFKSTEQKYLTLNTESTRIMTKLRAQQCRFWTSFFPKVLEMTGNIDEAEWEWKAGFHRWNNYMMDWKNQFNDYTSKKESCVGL
T1 sequence (P22303 whole entry): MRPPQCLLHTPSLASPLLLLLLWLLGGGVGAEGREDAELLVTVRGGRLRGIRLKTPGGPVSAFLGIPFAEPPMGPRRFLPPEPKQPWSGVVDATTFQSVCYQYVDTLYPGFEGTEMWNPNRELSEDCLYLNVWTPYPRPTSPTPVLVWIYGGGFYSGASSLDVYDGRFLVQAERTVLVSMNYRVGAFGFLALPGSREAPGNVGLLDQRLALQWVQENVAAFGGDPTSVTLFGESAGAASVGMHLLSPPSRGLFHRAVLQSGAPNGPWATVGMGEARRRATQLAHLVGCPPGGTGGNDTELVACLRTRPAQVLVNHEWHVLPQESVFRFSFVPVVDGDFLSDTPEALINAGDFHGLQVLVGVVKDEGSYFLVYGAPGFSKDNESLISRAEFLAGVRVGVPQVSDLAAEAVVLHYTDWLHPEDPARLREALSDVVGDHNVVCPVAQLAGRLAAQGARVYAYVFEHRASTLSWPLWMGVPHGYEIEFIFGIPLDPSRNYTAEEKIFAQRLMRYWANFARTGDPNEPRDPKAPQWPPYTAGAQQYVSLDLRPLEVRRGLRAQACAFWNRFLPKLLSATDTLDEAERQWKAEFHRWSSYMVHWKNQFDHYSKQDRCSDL

What is called IC50 is the point on the concentration scale where inhibition reaches its midpoint. High values mean weaker potency, low ones greater potency. What is called LD50 is the dose expected to kill half of the subjects tested. High values mean a less toxic substance, low ones a more toxic substance. By Ki is commonly meant the dissociation constant of the complex between target and ligand, obtained from inhibition or displacement. Low readings indicate tighter binding, high ones weaker binding. For the compound `CC[N+](CC)(CCCCCn1c(C)cc(=O)n(CCCCC[N+](CC)(CC)Cc2ccccc2[N+](=O)[O-])c1=O)Cc1ccccc1[N+](=O)[O-].[Br-].[Br-]`, the Activity was found to be 83.25% in data set [1] and 95.41% in data set [4]. Besides, the IC50 was 0.14 nM in data set [2] and 10000 nM in data set [5]. Also, in data set [3], the LD50 was determined as 0.008 mg/kg. This compound also displayed a Ki in data set [6] of 0.08 nM.

As for `CC[N+]1(Cc2ccccc2[N+](=O)[O-])CCCCCC[N+](CC)(Cc2ccccc2[N+](=O)[O-])CCCCCn2c(=O)cc(C)n(c2=O)CCCCC1` (stereo not given), the IC50 in data set [2] amounted to 59 nM; in data set [5], 9200 nM.

Turning to `CC[N+]1(Cc2ccccc2[N+](=O)[O-])CCCCCn2c(C)cc(=O)n(c2=O)CCCCC[N+](CC)(Cc2ccccc2[N+](=O)[O-])Cc2ccc(cc2)C1.[Br-].[Br-]` (stereo not given), the Activity in data set [7] is 75%; in data set [8], 95.4%. Further, the results for the IC50 in data set [2] and in data set [5] were 7 nM and 1200 nM, respectively. The compound also gave an LD50 in data set [3] of 15.5 mg/kg. Besides, affinity in data set [6] was put at a Ki of 50.1 nM.

With `CC[N+]1(Cc2ccccc2[N+](=O)[O-])CCCCCn2c(C)cc(=O)n(c2=O)CCCCC[N+](CC)(Cc2ccccc2[N+](=O)[O-])CCCCCn2c(=O)cc(C)n(c2=O)CCCCC1` (stereo not given), the IC50 in data set [2] was 130 nM; in data set [5], 10000 nM.

Take `CC[N+]1(Cc2ccccc2[N+](=O)[O-])CCCCCn2c(C)c3c(=O)n(c2=O)CCCCC[N+](CC)(Cc2ccccc2[N+](=O)[O-])CCCCCn2c(C)c(c(=O)n(c2=O)CCCCC1)C3` (stereo not given): the IC50 in data set [2] is 4000 nM; in data set [5], 20000 nM.

In data set [7], `CN(C)C(=O)Oc1ccc[n+](C)c1.[Br-]` [PYRIDOSTIGMINE BROMIDE] had an Activity of 91.3%. The LD50 in data set [3] was determined as 2.7 mg/kg.
